The structures appear in SMILES notation. Where only a bound is given, the exact number is not on record here.

One test deals with T1, P2X2/P2X3 heterotrimeric receptor (Homo sapiens) (UniProt Q9UBL9+P56373). Briefly: Antagonist activity against human P2X2/3 receptor expressed in HEK293/1321N1 cells assessed as inhibition of alpha,beta-meATP/ATP-induced calcium influx at 3 uM by Fluo-4 dye based FLIPR assay. The test is classed as functional, cell-based.
Take `Cc1ccc(N2CCc3ncnc(N(C)Cc4ccc(F)cc4)c3C2)nc1`: the inhibition stood at 0%.

Regarding `Cc1ccc(N2CCc3ncnc(N(C)Cc4ccc(Cl)cc4)c3C2)nc1`, the inhibition turned out to be 0%. On the same count and under the same terms, the result for `Cc1ccc(N2CCc3ncnc(NCc4ccc(C)cc4C)c3C2)nc1` reads 25%; that for `Cc1ccc(N2CCc3ncnc(NCc4cc(Cl)ccc4F)c3C2)nc1`, 50%. On the same count and under the same terms, the result for `Cc1ccc(N2CCc3ncnc(NCc4cc(C(F)(F)F)ccc4F)c3C2)nc1` reads 0%; that for `Cc1ccc(N2CCc3ncnc(NCc4cccc(C)c4C)c3C2)nc1`, 0%.

On to `Cc1ccc(N2CCc3ncnc(NCc4ccc(Cl)cc4Cl)c3C2)nc1`, for which the inhibition turned out to be 0%.

For `Cc1ccc(N2CCc3ncnc(NCc4ccc(F)c(F)c4)c3C2)nc1`, the inhibition was over 75%. As to `Cc1ccc(N2CCc3ncnc(NCc4ccc(C(C)C)cc4)c3C2)nc1`, the inhibition amounted to 0%. The same measure, in the same setting: the result for `Cc1ccc(N2CCc3ncnc(NCc4ccccc4OC(F)F)c3C2)nc1` reads over 75%; that for `Cc1ccc(N2CCc3ncnc(NCc4ccc(F)c(C)c4)c3C2)nc1`, over 75%.

Regarding `Cc1ccc(N2CCc3ncnc(NCc4ccc(F)c(C(F)(F)F)c4)c3C2)nc1`, the inhibition was found to be 0%.

For `Cc1ccc(N2CCc3ncnc(NCc4cc(C(F)(F)F)cc(C(F)(F)F)c4)c3C2)nc1`, the inhibition came to 0%.

For the compound `COc1ccc(CCNc2ncnc3c2CN(c2ccc(C)cn2)CC3)cc1OC`, the inhibition turned out to be 50%. In the case of `COc1ccc(CCNc2ncnc3c2CN(c2ccc(C)cn2)CC3)cc1`, the inhibition was over 75%. Take `O=S(=O)(c1ccc(Nc2ncnc3c2CN(c2ncccc2Cl)CC3)cc1)C(F)(F)F`: the inhibition was 0%.

As for `COc1cc(CNc2ncnc3c2CN(c2ccc(C)cn2)CC3)cc(OC)c1`, the inhibition was found to be 0%. The same measure, in the same setting: the result for `COc1ccc(CN(C)c2ncnc3c2CN(c2ccc(C)cn2)CC3)cc1OC` reads 25%; that for `Cc1ccc(CNc2ncnc3c2CN(c2ccc(C)cn2)CC3)cc1`, over 75%. Turning to `Cc1ccc(N2CCc3ncnc(NCc4cccc(Cl)c4)c3C2)nc1`, the inhibition was over 75%. `Cc1ccc(N2CCc3ncnc(NCCc4ccccc4)c3C2)nc1`: the inhibition was over 75%.

In the case of `Cc1ccc(N2CCc3ncnc(NCc4cccc(F)c4)c3C2)nc1`, the inhibition was over 75%. Still for that read-out and setting: the result for `Cc1ccc(N2CCc3ncnc(NCc4cc(F)ccc4F)c3C2)nc1` reads 50%; that for `Cc1ccc(N2CCc3ncnc(N(C)Cc4cccc(Cl)c4)c3C2)nc1`, 0%. On to `Cc1ccc(N2CCc3ncnc(NCc4ccccc4OC(F)(F)F)c3C2)nc1`, for which the inhibition is over 75%.

Turning to `COc1ccc(CNc2ncnc3c2CN(c2ccc(C)cn2)CC3)cc1`, the inhibition was over 75%. As to `Cc1ccc(N2CCc3ncnc(NCCc4ccc(Cl)cc4)c3C2)nc1`, the inhibition was over 75%. Take `COc1ccccc1CN(C)c1ncnc2c1CN(c1ccc(C)cn1)CC2`: the inhibition came to 0%. On the same count and under the same terms, the result for `CCc1ccc(CN(C)c2ncnc3c2CN(c2ccc(C)cn2)CC3)cc1` reads 0%; that for `Cc1ccc(N2CCc3ncnc(NCc4cc(Cl)cc(Cl)c4)c3C2)nc1`, 0%.

For the compound `COc1cccc(CNc2ncnc3c2CN(c2ccc(C)cn2)CC3)c1`, the inhibition was over 75%.

As to `COc1cccc(CN(C)c2ncnc3c2CN(c2ccc(C)cn2)CC3)c1`, the inhibition came to 0%. For the compound `Clc1cccnc1N1CCc2ncnc(Nc3ccccc3)c2C1`, the inhibition is 0%.

With `Cc1ccc(N2CCc3ncnc(N(C)Cc4ccc(C(F)(F)F)cc4)c3C2)nc1`, the inhibition stood at 0%. As to `Cc1ccc(N2CCc3ncnc(NCc4ccc(Cl)cc4)c3C2)nc1`, the inhibition is over 75%. Still for that read-out and setting: the result for `Cc1ccc(N2CCc3ncnc(NCc4ccc(OC(F)(F)F)cc4)c3C2)nc1` reads 50%; that for `Cc1ccc(N2CCc3ncnc(NCc4cc(F)cc(C(F)(F)F)c4)c3C2)nc1`, 0%.

In the case of `Cc1ccc(N2CCc3ncnc(NCCc4ccccc4Cl)c3C2)nc1`, the inhibition was over 75%. On the same count and under the same terms, the result for `Cc1ccc(N2CCc3ncnc(NC(C)c4ccc(F)cc4)c3C2)nc1` (centres undefined) reads over 75%; that for `COc1cccc(CCNc2ncnc3c2CN(c2ccc(C)cn2)CC3)c1`, over 75%; that for `Cc1ccc(N2CCc3ncnc(NCc4ccccc4Cl)c3C2)nc1`, over 75%. Same read-out and setting: the result for `Cc1ccc(N2CCc3ncnc(NCc4ccc(C(C)(C)C)cc4)c3C2)nc1` reads 0%; that for `Cc1ccc(CN(C)c2ncnc3c2CN(c2ccc(C)cn2)CC3)cc1`, 25%; that for `Cc1ccc(N2CCc3ncnc(N(C)Cc4ccccc4)c3C2)nc1`, 0%. The same measure, in the same setting: the result for `Cc1ccc(N2CCc3ncnc(NCc4cc(C(F)(F)F)ccc4Cl)c3C2)nc1` reads 0%. For the compound `Cc1ccc(N2CCc3ncnc(NCc4ccc(Cl)c(Cl)c4)c3C2)nc1`, the inhibition was 0%. For the compound `Cc1ccc(N2CCc3ncnc(NCc4ccc(C(F)(F)F)cc4)c3C2)nc1`, the inhibition was over 75%. `COc1ccc(CN(C)c2ncnc3c2CN(c2ccc(C)cn2)CC3)cc1`: the inhibition was 0%. Same read-out and setting: the result for `Cc1ccc(N2CCc3ncnc(NCc4cccc(F)c4F)c3C2)nc1` reads over 75%; that for `Cc1ccc(N2CCc3ncnc(NCc4cccc(C(F)(F)F)c4)c3C2)nc1`, 50%. On the same count and under the same terms, the result for `Cc1ccc(CCNc2ncnc3c2CN(c2ccc(C)cn2)CC3)cc1` reads over 75%; that for `Cc1ccc(N2CCc3ncnc(NCc4ccc5c(c4)OCO5)c3C2)nc1`, over 75%. As to `Cc1ccc(N2CCc3ncnc(NCc4ccc(C(F)(F)F)cc4F)c3C2)nc1`, the inhibition is over 75%. On the same count and under the same terms, the result for `Cc1ccc(N2CCc3ncnc(NCCc4cccc(C(F)(F)F)c4)c3C2)nc1` reads over 75%; that for `Cc1ccc(N2CCc3ncnc(NCc4ccccc4C(F)(F)F)c3C2)nc1`, 50%. The same measure, in the same setting: the result for `CN1CC(C)(C)c2ccc(Nc3ncnc4c3CN(c3ncccc3Cl)CC4)cc21` reads 0%; that for `Cc1ccc(N2CCc3ncnc(NCc4ccc(Cl)cc4F)c3C2)nc1`, 50%; that for `COc1cc(CCNc2ncnc3c2CN(c2ccc(C)cn2)CC3)cc(OC)c1`, 50%. On the same count and under the same terms, the result for `Cc1ccc(N2CCc3ncnc(NCCc4ccc(Cl)c(Cl)c4)c3C2)nc1` reads 50%.

The target of another test is T1, P2X2/P2X3 heterotrimeric receptor (Homo sapiens). Nature of the test: Antagonist activity against human P2X2/3 receptor expressed in HEK293/1321N1 cells assessed as inhibition of alpha,beta-meATP/ATP-induced calcium influx at 10 uM by Fluo-4 dye based FLIPR assay. It is filed as functional, cell-based.
For `CC1(C)CNc2cc(Nc3ncnc4c3CN(c3ncccc3Cl)CC4)ccc21`, the inhibition worked out at 0%. The same measure, in the same setting: the result for `Cc1ccc(N2CCc3ncnc(N(C)Cc4ccc(F)cc4)c3C2)nc1` reads 50%.

As to `FC(F)(F)c1ccc(Nc2ncnc3c2CN(c2ncccc2Cl)CC3)cn1`, the inhibition came to 0%. As for `COc1ccc(CN(C)c2ncnc3c2CN(c2ccc(C)cn2)CC3)cc1OC`, the inhibition is over 75%. On to `COc1ccccc1CNc1ncnc2c1CN(c1ccc(C)cn1)CC2`, for which the inhibition is over 75%. As for `CC1(C)C(=O)Nc2cc(Nc3ncnc4c3CN(c3ncccc3Cl)CC4)ccc21`, the inhibition was found to be 0%. For the compound `Cc1ccc(N2CCc3ncnc(NCC4(O)CCCC(C)(C)C4)c3C2)nc1` (centres undefined), the inhibition was determined as 0%.

Regarding `Cc1ccccc1N1CCc2ncnc(Nc3ccc(C(F)(F)F)cc3)c2C1`, the inhibition came to 0%.

For `COc1cccc(CNc2ncnc3c2CN(c2ccc(C)cn2)CC3)c1`, the inhibition is over 75%.

Take `Cc1ccc(N2CCc3ncnc(NCc4ccccc4C)c3C2)nc1`: the inhibition was over 75%. On to `Cc1ccc(N2CCc3ncnc(NCC4CCCCC4)c3C2)nc1`, for which the inhibition is over 75%. On the same count and under the same terms, the result for `Cc1ccc(N2CCc3ncnc(NCCc4ccccc4Cl)c3C2)nc1` reads over 75%; that for `Cc1ccc(N2CCc3ncnc(Nc4ccc(C(F)(F)F)cc4)c3C2)cc1`, 0%; that for `Cc1ccc(N2CCc3ncnc(NCc4cc(C(F)(F)F)ccc4Cl)c3C2)nc1`, 0%. Same read-out and setting: the result for `Cc1ccc(N2CCc3ncnc(NCCc4cccc(C(F)(F)F)c4)c3C2)nc1` reads over 75%.

(Values after ChEMBL document CHEMBL3727362, “Tetrahydronaphthyridine and tetrahydropyrido[4,3-D]pyrimidine compounds and compositions thereof useful for the treatment of inflammatory and respiratory diseases” (2014).)
